These results are taken from US11492335B2, “Aryl or heteroaryl triazolone derivatives or salts thereof, or pharmaceutical compositions comprising the same” (YUHAN CORPORATION, priority 2018, dated 2022).

Structures are written as SMILES. Structures can show the parent of a compound that is named as a salt. Some results are limits rather than exact numbers.

One may read the IC50 as the concentration at which inhibition is half-maximal.

Type in all cases: biochemical
For one assay, the target named is T1, recombinant human VAP-1 (Homo sapiens, UniProt Q16853).
T1 construct: purchased R&D systems
T1 sequence (Q16853 1-763): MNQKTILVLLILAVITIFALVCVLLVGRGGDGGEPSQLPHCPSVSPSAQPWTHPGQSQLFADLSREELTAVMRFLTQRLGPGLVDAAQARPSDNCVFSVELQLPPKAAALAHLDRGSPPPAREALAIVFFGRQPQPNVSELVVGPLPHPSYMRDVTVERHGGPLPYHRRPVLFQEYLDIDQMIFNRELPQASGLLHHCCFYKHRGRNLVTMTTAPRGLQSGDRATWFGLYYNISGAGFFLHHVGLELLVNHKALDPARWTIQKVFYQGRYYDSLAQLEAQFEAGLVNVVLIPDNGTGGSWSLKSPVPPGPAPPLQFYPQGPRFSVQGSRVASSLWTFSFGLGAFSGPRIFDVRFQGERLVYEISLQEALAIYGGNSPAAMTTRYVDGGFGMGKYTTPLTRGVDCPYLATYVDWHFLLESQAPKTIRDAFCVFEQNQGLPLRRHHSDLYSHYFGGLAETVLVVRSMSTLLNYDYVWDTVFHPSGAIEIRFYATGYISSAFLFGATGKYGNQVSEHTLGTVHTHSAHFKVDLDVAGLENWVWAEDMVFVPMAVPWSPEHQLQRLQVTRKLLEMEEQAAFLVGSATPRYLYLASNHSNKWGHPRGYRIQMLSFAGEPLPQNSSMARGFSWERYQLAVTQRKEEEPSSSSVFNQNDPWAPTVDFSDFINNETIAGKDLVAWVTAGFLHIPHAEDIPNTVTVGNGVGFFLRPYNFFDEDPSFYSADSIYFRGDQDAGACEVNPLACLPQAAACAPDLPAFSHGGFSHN
The assay can be described thus: Activity on recombinant human VAP-1, Amplex Red HRP-coupled hydrogen peroxide assay, benzylamine substrate. As to conditions: recombinant human VAP-1, benzylamine substrate; read-out: Inhibitory Activity (IC50, nM) human VAP-1. In outline: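 Compounds were preincubated with purified enzyme in 50 mM sodium phosphate pH 7.4 at 37 °C for 30 min, then 200 uM Amplex Red, 1 mM benzylamine and 1 U/mL HRP were added. Resorufin fluorescence (ex 544/em 590 nm) was followed over 1-2 h; IC50 came from 4-parameter fits of signal-rate inhibition.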

The target of assay [1] is T2, recombinant human MAO-A (monoamine oxidase-A) (Homo sapiens, UniProt P21397).
T2 construct: purchased Sigma-Aldrich
T2 sequence (P21397 1-527): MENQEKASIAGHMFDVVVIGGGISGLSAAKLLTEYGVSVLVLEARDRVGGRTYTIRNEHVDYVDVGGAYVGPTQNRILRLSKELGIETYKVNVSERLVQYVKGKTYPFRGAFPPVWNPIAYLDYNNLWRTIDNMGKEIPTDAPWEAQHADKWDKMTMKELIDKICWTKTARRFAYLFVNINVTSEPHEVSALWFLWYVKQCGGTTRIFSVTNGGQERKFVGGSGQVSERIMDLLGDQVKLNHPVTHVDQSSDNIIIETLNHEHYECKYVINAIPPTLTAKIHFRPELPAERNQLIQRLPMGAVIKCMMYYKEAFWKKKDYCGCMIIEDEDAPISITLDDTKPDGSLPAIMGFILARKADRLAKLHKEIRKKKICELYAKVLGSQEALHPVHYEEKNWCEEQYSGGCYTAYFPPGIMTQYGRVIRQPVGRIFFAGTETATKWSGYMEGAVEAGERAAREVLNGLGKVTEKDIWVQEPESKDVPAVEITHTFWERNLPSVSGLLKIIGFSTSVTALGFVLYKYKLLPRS
As to the kind of experiment: Activity on recombinant human MAO-A, Amplex Red method, 0.5 mM tyramine substrate. As to conditions: 0.5 mM tyramine substrate, read-out: Inhibitory Activity (IC50, nM) MAO-A. In outline:
(§1)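 8-point, 1:3 dose-response, four-parameter logistic IC50 from reduction in fluorescence rate versus DMSO control. HRP/Amplex Red detection of H2O2 (ex 544, em 590 nm) after 30 min, 37 °C compound–enzyme preincubation in pH 7.4 phosphate buffer. MAO-A substrate: 0.5 mM tyramine; MAO-B: 1 mM benzylamine.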

Assay [2] has as its target T3, recombinant human MAO-B (monoamine oxidase-B) (Homo sapiens, UniProt P27338).
T3 construct: purchased Sigma-Aldrich
T3 sequence (P27338 1-520): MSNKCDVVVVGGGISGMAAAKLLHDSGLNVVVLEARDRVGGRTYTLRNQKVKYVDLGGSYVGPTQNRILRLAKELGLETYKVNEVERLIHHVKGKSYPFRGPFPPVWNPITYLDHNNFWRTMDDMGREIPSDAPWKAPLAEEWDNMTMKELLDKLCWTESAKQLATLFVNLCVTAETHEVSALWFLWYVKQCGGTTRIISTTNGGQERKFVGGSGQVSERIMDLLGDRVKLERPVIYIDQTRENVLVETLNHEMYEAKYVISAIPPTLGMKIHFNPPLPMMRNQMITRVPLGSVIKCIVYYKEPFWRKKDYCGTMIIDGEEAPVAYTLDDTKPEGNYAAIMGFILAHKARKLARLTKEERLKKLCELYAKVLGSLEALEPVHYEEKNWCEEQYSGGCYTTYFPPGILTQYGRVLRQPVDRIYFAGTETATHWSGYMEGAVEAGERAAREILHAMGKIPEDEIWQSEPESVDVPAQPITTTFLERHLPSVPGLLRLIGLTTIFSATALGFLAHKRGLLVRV
As to the kind of experiment: Activity on recombinant human MAO-B, Amplex Red method, 1 mM benzylamine substrate. As to conditions: 1 mM benzylamine substrate, read-out: Inhibitory Activity (IC50, nM) MAO-B. In short, it runs like this:
as §1

The target of assay [3] is T4, recombinant human DAO (diamine oxidase) (Homo sapiens, UniProt P19801).
T4 construct: purchased R&D systems
T4 sequence (P19801 20-751): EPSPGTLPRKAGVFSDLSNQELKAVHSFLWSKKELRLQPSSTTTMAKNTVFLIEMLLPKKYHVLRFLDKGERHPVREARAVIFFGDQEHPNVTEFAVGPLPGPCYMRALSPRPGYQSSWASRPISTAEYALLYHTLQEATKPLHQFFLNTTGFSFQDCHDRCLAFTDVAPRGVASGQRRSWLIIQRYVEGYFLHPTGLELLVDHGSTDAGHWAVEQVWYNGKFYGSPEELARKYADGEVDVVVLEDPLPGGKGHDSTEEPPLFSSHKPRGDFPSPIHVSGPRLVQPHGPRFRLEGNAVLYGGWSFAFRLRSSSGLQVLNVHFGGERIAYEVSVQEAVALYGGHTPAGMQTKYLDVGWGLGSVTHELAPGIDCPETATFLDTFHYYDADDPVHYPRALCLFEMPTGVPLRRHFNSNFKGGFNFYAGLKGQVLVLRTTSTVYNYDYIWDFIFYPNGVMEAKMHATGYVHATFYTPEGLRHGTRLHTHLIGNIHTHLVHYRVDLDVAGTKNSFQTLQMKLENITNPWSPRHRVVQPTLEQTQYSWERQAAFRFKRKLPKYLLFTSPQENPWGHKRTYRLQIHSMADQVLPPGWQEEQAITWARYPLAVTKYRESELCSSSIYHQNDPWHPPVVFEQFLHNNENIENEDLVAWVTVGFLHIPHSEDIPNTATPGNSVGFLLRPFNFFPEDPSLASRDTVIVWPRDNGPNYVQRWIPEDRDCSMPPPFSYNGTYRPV
The assay can be described thus: Activity on recombinant human DAO, Amplex Red method, 1 mM putrescine substrate. Conditions: recombinant human DAO, 1 mM putrescine substrate; read-out: Inhibitory Activity (IC50, nM) DAO. In short, it runs like this:
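Inhibition of recombinant human DAO (diamine oxidase, R&D systems) was assessed with the Amplex Red Hydrogen Peroxide Assay Kit. Hydrogen peroxide produced from 1 mM putrescine was detected through an HRP-coupled reaction that converts Amplex Red into fluorescent resorufin, read at 544 nm excitation and 590 nm emission. IC50 values came from four-parameter logistic fits in GraphPad Prism.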

Take `NC/C(=C\F)Cn1ncn(-c2cnc(-c3cccc(-c4nc[nH]n4)c3)cn2)c1=O` [Example 219, 2-[(2E)-2-(aminomethyl)-3-fluoroprop-2-en-1-yl]-4-{5-[3-(1H-1,2,4-triazol-3-yl)phenyl]pyrazin-2-yl}-2,4-dihydro-3H-1,2,4-triazol-3-one]: the half-inhibitory concentration (IC50) at recombinant human VAP-1 is 2.3 nM; in assay [1] it was above 100000 nM; in assay [2], 41 nM; in assay [3], below 100 nM.

For `CC(=O)Nc1cc(-c2cnc(-n3cnn(C/C(=C/F)CN)c3=O)cn2)ccn1` [Example 220, N-[4-(5-{1-[(2E)-2-(aminomethyl)-3-fluoroprop-2-en-1-yl]-5-oxo-1,5-dihydro-4H-1,2,4-triazol-4-yl}pyrazin-2-yl)pyridin-2-yl]acetamide], the IC50 is 1.8 nM at recombinant human VAP-1, above 100000 nM in assay [1], 396 nM in assay [2] and below 100 nM in assay [3].

As for `NC/C(=C\F)Cn1ncn(-c2cnc(-c3ccc(N4CCOCC4)nc3)cn2)c1=O` [Example 221, 2-[(2E)-2-(aminomethyl)-3-fluoroprop-2-en-1-yl]-4-{5-[6-(morpholin-4-yl)pyridin-3-yl]pyrazin-2-yl}-2,4-dihydro-3H-1,2,4-triazol-3-one], the IC50 at recombinant human VAP-1 was 1.9 nM; in assay [1], above 100000 nM; in assay [2], 650 nM; in assay [3], below 100 nM.

`NC/C(=C\F)Cn1ncn(-c2cnc(-c3ccc4nonc4c3)cn2)c1=O` [Example 222, 2-[(2E)-2-(aminomethyl)-3-fluoroprop-2-en-1-yl]-4-[5-(2,1,3-benzooxadiazol-5-yl)pyrazin-2-yl]-2,4-dihydro-3H-1,2,4-triazol-3-one]: the IC50 on recombinant human VAP-1 is 0.94 nM; in assay [1] it was 770 nM; in assay [2] it was 22 nM; in assay [3], below 100 nM.

As for `NC/C(=C\F)Cn1ncn(-c2cnc(-c3ccc4cn[nH]c4c3)cn2)c1=O` [Example 223, 2-[(2E)-2-(aminomethyl)-3-fluoroprop-2-en-1-yl]-4-[5-(1H-indazol-6-yl)pyrazin-2-yl]-2,4-dihydro-3H-1,2,4-triazol-3-one], the IC50 at recombinant human VAP-1 was 2.2 nM; in assay [1] it was 21700 nM; in assay [2] it was 10.5 nM; in assay [3] it was below 100 nM.

`NC/C(=C\F)Cn1ncn(-c2cnc(-c3ccc4sc(N)nc4c3)cn2)c1=O` [Example 224, 4-[5-(2-amino-1,3-benzothiazol-5-yl)pyrazin-2-yl]-2-[(2E)-2-(aminomethyl)-3-fluoroprop-2-en-1-yl]-2,4-dihydro-3H-1,2,4-triazol-3-one]: the IC50 is 1.3 nM on recombinant human VAP-1, above 100000 nM in assay [1], 49 nM in assay [2] and below 100 nM in assay [3].

On to `CC(=O)Nc1nc2cc(-c3cnc(-n4cnn(C/C(=C/F)CN)c4=O)cn3)ccc2s1` [Example 225, N-[5-(5-{1-[(2E)-2-(aminomethyl)-3-fluoroprop-2-en-1-yl]-5-oxo-1,5-dihydro-4H-1,2,4-triazol-4-yl}pyrazin-2-yl)-1,3-benzothiazol-2-yl]acetamide], for which the IC50 was 1 nM on recombinant human VAP-1, above 100000 nM in assay [1], 53 nM in assay [2] and below 100 nM in assay [3].

For the molecule `CS(=O)(=O)c1ccc(-c2cnc(-n3cnn(C/C(=C\F)CN)c3=O)s2)cc1` [Example 226, 2-[(2Z)-2-(aminomethyl)-3-fluoroprop-2-en-1-yl]-4-{5-[4-(methylsulfonyl)phenyl]-1,3-thiazol-2-yl}-2,4-dihydro-3H-1,2,4-triazol-3-one hydrochloride], the IC50 is 1.4 nM on recombinant human VAP-1, above 100000 nM in assay [1], 11.4 nM in assay [2] and below 100 nM in assay [3].

Regarding `NC/C(=C\F)Cn1ncn(-c2ncc(-c3ccc(-c4nnc[nH]4)cc3)s2)c1=O` [Example 227, 2-[(2E)-2-(aminomethyl)-3-fluoroprop-2-en-1-yl]-4-{5-[4-(4H-1,2,4-triazol-3-yl)phenyl]-1,3-thiazol-2-yl}-2,4-dihydro-3H-1,2,4-triazol-3-one], the IC50 is 0.61 nM on recombinant human VAP-1, above 100000 nM in assay [1], 164 nM in assay [2] and 0.24 nM in assay [3].

Consider `NC/C(=C\F)Cn1ncn(-c2ncc(-c3cccc(-c4nnc[nH]4)c3)s2)c1=O` [Example 228, 2-[(2E)-2-(aminomethyl)-3-fluoroprop-2-en-1-yl]-4-{5-[3-(4H-1,2,4-triazol-3-yl)phenyl]-1,3-thiazol-2-yl}-2,4-dihydro-3H-1,2,4-triazol-3-one], for which the IC50 at recombinant human VAP-1 is 0.38 nM; in assay [1], above 100000 nM; in assay [2], 9.2 nM; in assay [3] it was below 100 nM.

`NC/C(=C\F)Cn1ncn(-c2ncc(-c3ccc(-c4ncon4)cc3)s2)c1=O` [Example 229]: the IC50 was 0.98 nM on recombinant human VAP-1, 130 nM in assay [1], 12 nM in assay [2] and below 100 nM in assay [3].
